# Measurements reported in ChEMBL document CHEMBL1122257, “Synthesis and anticonvulsant activity of some tetracyclic indole derivatives” (1983).
# Legend:
# Assay type in all cases: functional
# Rattus norvegicus [1] = test: Tested for anticonvulsant activity in 3 rats after oral administration of 30 mg/kg po dose for protection against maximal electroshock in rat MES test; 0/3
# Rattus norvegicus [2] = test: Tested anticonvulsant activity in 6 rats after oral administration of 30 mg/kg po dose for rotarod performance; 0/6
# Rattus norvegicus [3] = test: Tested for anticonvulsant activity in 3 rats after oral administration of 30 mg/kg po dose for protection against maximal electroshock in rat MES test; 3/3
# Rattus norvegicus [4] = test: Anticonvulsant activity in rats after oral administration of 30 mg/kg dose(effective dosage)
# Rattus norvegicus [5] = test: Tested anticonvulsant activity in 6 rats after oral administration of 30 mg/kg po dose for rotarod performance; 1/6
# Rattus norvegicus [6] = test: Tested anticonvulsant activity in 6 rats after oral administration of 300 mg/kg po dose for rotarod performance; 0/6
# Rattus norvegicus [7] = test: Tested for anticonvulsant activity in 3 rats after oral administration of 30 mg/kg po dose for protection against maximal electroshock in rat MES test; 2/3
# Rattus norvegicus [8] = test: Tested for anticonvulsant activity in 3 rats after oral administration of 30 mg/kg po dose for protection against maximal electroshock in rat MES test; 1/3
# Rattus norvegicus [9] = test: Anticonvulsant activity in rats after oral administration of 30 mg/kg dose for rotarod performance; 0/6
SMILES,Reactors/Test group (Rattus norvegicus [1]),Reactors/Test group (Rattus norvegicus [2]),other results
CNC(=O)C1CCc2cccc3c4c(n1c23)CCC4 (stereo unspecified),0,0,
CN(C)CC1Cc2cccc3c4c(n1c23)CCCC4 (stereo unspecified),,0,Reactors/Test group (Rattus norvegicus [3]): 3; ED50 (Rattus norvegicus [4]): 19.2 mg/kg
CN(C)CCC1CCc2cccc3c4c(n1c23)CCSC4 (stereo unspecified),0,,Reactors/Test group (Rattus norvegicus [5]): 1
CN(C)CC1CCc2cccc3c4c(n1c23)CCCC4 (stereo unspecified),,,Reactors/Test group (Rattus norvegicus [3]): 3; Reactors/Test group (Rattus norvegicus [6]): 0
CN(C)C(=O)C1CCc2cccc3c4c(n1c23)CCCCC4 (stereo unspecified),0,0,
CN(C)CC1Cn2c3c(c4cccc1c42)CCCCC3 (stereo unspecified),0,0,
CN(C)CC1Cc2cccc3c4c(n1c23)CCCCC4 (stereo unspecified),0,0,
CN(C)CCC1CCc2cccc3c4c(n1c23)CCCC4 (stereo unspecified),,0,Reactors/Test group (Rattus norvegicus [7]): 2
CN(C)CC1Cc2cccc3c4c(n(c23)C1)CCCCCC4 (stereo unspecified),0,,Reactors/Test group (Rattus norvegicus [5]): 1
CN(C)CCC1CCc2cccc3c4c(n1c23)CCCCCC4 (stereo unspecified),0,0,
CN(C)CC1CCc2cccc3c4c(n1c23)CCC4 (stereo unspecified),,0,Reactors/Test group (Rattus norvegicus [3]): 3; ED50 (Rattus norvegicus [4]): 12.5 mg/kg
CN(C)CCC1CCc2cccc3c4c(n1c23)CCC4 (stereo unspecified),0,0,
CN(C)CC1CCc2cccc3c4c(n1c23)-c1ccccc1SC4 (stereo unspecified),0,0,
CN(C)CC1CCc2cccc3c4c(n1c23)-c1ccccc1CC4 (stereo unspecified),,,Reactors/Test group (Rattus norvegicus [5]): 1; Reactors/Test group (Rattus norvegicus [8]): 1
CN(C)CC1Cn2c3c(c4cccc1c42)CCCCCC3 (stereo unspecified),0,0,
CN(C)CC1Cc2cccc3c4c(n1c23)CCCCCC4 (stereo unspecified),0,0,
CN(C)CC1CCc2cccc3c4c(n1c23)CCCCC4 (stereo unspecified),,0,ED50 (Rattus norvegicus [4]): 78.9 mg/kg; Reactors/Test group (Rattus norvegicus [7]): 2
CN(C)CC1CCc2cccc3c4c(n1c23)CCCCCC4 (stereo unspecified),0,0,
CN(C)CC1Cc2cccc3c4c(n(c23)C1)CCCCC4 (stereo unspecified),0,0,
CN(C)CCC1CCc2cccc3c4c(n1c23)CCN(C)C4 (stereo unspecified),0,0,
CN(C)CC1Cc2cccc3c4c(n(c23)C1)Cc1ccccc1-4 (stereo unspecified),0,,Reactors/Test group (Rattus norvegicus [5]): 1
CN(C)CC1CCc2cccc3c4c(n1c23)CCSC4 (stereo unspecified),0,0,
CN(C)CCC1CCc2cccc3c4c(n1c23)CCCCC4 (stereo unspecified),,0,Reactors/Test group (Rattus norvegicus [3]): 3; ED50 (Rattus norvegicus [4]): 27.4 mg/kg
CN1CCN(C(=O)C2CCc3cccc4c5c(n2c34)CCCCC5)CC1 (stereo unspecified),0,0,
O=C1NC(=O)C(c2ccccc2)(c2ccccc2)N1 [PHENYTOIN],,,ED50 (Rattus norvegicus [4]): 42.3 mg/kg; Reactors/Test group (Rattus norvegicus [9]): 0
CNC(=O)C1CCc2cccc3c4c(n1c23)CCCC4 (stereo unspecified),0,0,
CNCC1CCc2cccc3c4c(n1c23)CCCCC4 (stereo unspecified),0,0,
CNC(=O)C1CCc2cccc3c4c(n1c23)CCCCC4 (stereo unspecified),,0,Reactors/Test group (Rattus norvegicus [3]): 3; ED50 (Rattus norvegicus [4]): 12.9 mg/kg
